Experimental findings from patent US20040197268A1, “Method of imaging amyloid deposits using substituted rhodanine derivatives” (priority 1999, published 2004) are described below.

What is called melting point is the temperature of the solid-liquid transition. By IC50 is commonly meant the midpoint of a concentration-inhibition curve.

Values joined by “and” are separate entries in the source; they are usually repeats but may differ in a detail not shown here. Equal entries are not always repeated. Structures can show the parent of a compound that is named as a salt. Some results are limits rather than exact numbers.

In data set [1] the target is T1, Aβ(1-40) (Homo sapiens, UniProt P05067).
T1 construct: Soluble Aβ(1-40) peptide (Bachem, Torrance, Calif.); purchased Bachem, Torrance, Calif
The experiment in a line: BASSR (Beta-Amyloid Self-Seeding Radioassay), inhibitors of self-seeded amyloid fibril growth. In kind it is biochemical. Conditions: 30 μM soluble Aβ(1-40) + 125I-labeled Aβ(1-40), pH 7.5, 37° C., 3 to 5 hours, filtration. Here is the method: BASSR (Beta-Amyloid Self-Seeding Radioassay)
(§1) An assay for inhibitors of self-seeded amyloid fibril growth
Assay Buffer—50 mM sodium phosphate, pH 7.5, 100 mM NaCl, 0.02% NaN3, 1 M urea (filter and store at 4° C.)
Soluble Aβ(1-40) peptide (Bachem, Torrance, Calif.)—2.2 mg/mL in deionized H2O (stored in aliquots at −20° C., keep on ice when thawed) will self-seed after 1 week storage. Typically, the solution should be stored until no lag phase is seen in the assay.
^125I-labeled Aβ(1-40)—150K-350K cpm/μL in 100% acetonitrile—0.1% trifluoroacetic acid (TFA)—1% β-mercaptoethanol (aliquots stored at −20° C.). ^125I-labeled Aβ(1-40) can be made in accordance with the procedure set forth by H. Levine, III in Neurobiol. Aging, 16:755 (1995), which is hereby incorporated by reference, or this reagent may be purchased from Amersham, Arlington Heights, Ill.
Final assay conditions: 30 μM soluble Aβ(1-40) in deionized water in assay buffer+20-50K cpm ^125I-labeled Aβ(1-40) per assay. Compound to be tested is dissolved in dimethylsulfoxide (DMSO), typically 5-50 mM stock, such that the final concentration of DMSO is <1% v/v in the assay.
Assay: Reaction mixture for 50 assays (on ice) is comprised of 0.1-0.2 μL of […] ^125I-labeled Aβ(1-40)+1 μL of soluble Aβ(1-40)+13.5 μL assay buffer per assay. The following are the amounts of the components of the reaction mixture sufficient for 50 assay wells.
1) Prepare reaction mixture above by mixing components and storing on ice.
2) Pipet 14.5 μL of reaction mixture into each of 50 wells on a polypropylene U-bottom 96-well microtiter plate on ice (Costar 3794).
3) Add 1.7 μL of diluted compound to be tested to each well in a column of eight, including solvent control. Serial 3-fold dilutions from 1 mM (100 μM final) in assay buffer−urea=7 dilutions+zero. Each 96-well plate can therefore accommodate 11 samples+1 Congo Red control (0.039-5 μM final in 2-fold steps).
4) Seal the plate with aluminum film (Beckman 538619) and incubate for 10 minutes on ice.
5) Raise the temperature to 37° C. and incubate for 3 to 5 hours (depending on the lot of the peptide).
6) Remove the aluminum film and add 200 μL/well of ice cold assay buffer with urea, collecting the radiolabeled fibrils by vacuum filtration through 0.2 μm pore size GVWP filters in 96-well plates (Millipore MAGV N22, Bedford, Mass.). Determine the radioactivity of the filters using standard methods well-known to those skilled in the art.

The target in data set [2] is T1, Aβ(1-40). Put plainly: BASST (Beta-Amyloid Self-Seeding, ThioflavinT), inhibitors of self-seeded amyloid fibril growth. In kind it is biochemical. The settings on record: 30 μM soluble Aβ(1-40), pH 7.5, 37° C., 3 to 5 hours, thioflavin T fluorescence. The procedure: BASST (Beta-Amyloid Self-Seeding, ThioflavinT)
as §1
Assay Buffer—50 mM sodium phosphate, pH 7.5, 100 mM NaCl, 0.02% NaN3, 1 M urea (filter and store at 4° C.).
Soluble Aβ(1-40)—2.2 mg/mL in deionized H2O (store in aliquots at −20° C., keep on ice when thawed) will self-seed after 1 week storage. Typically, the solution should be stored until no lag phase is seen in the assay.
Final assay conditions: 30 μM soluble Aβ(1-40) in deionized water in assay buffer. Compound to be tested is dissolved in DMSO, typically 5-50 mM stock, such that the final concentration of DMSO is <1% v/v in the assay.
Assay: Reaction mixture for 50 assays (on ice) comprised of 1 μL of soluble Aβ(1-40)+13.5 μL assay buffer per assay. The following are the amounts of the components of the reaction mixture that result in each of the 50 assay wells.
1) Prepare the reaction mix above by mixing the components and storing on ice.
2) Pipet […] of reaction mixture into each of 50 wells of a polystyrene U-bottom 96-well microtiter plate (Corning 25881-96) on ice.
3) Add […] of diluted compound to be tested to each well in a column of eight, including solvent control. Serial 3-fold dilutions from 1 mM (100 μM final) in assay buffer−urea=7 dilutions+zero. Each 96-well plate can therefore accommodate 11 samples+1 Congo Red control (0.039-5 μM final in 2-fold steps).
4) Seal the plate with aluminum film and incubate for 10 minutes on ice.
5) Raise the temperature to 37° C. and incubate for 3 to 5 hours (depends on the lot of the peptide).
6) Remove the aluminum film and add 250 μL/well of 5 μM thioflavin T (ThT) [T-3516, Sigma-Aldrich] in 50 mM glycine-NaOH, pH 8.5. Read fluorescence on a plate reader (ex=440 nm/20 nm; em=485 nm/20 nm) within 5 minutes.

The target in another data set is T2, Aβ(1-42) (Homo sapiens, UniProt P05067).
T2 construct: Required Aβ(1-42)(California Peptide) was dried from its hexafluoroisopropanol (HFIP) stock solution; purchased California Peptide
Put plainly: BATYM Assay (Aβ(1-42) aggregation, Thioflavin T fluorescence). Conditions: Aβ 1-42 final concentration 100 μM, PBS pH 7.4, 37° C., 1 day, ThT fluorescence. The class given is biochemical. Here is the method:
Required Aβ(1-42)(California Peptide) was dried from its hexafluoroisopropanol (HFIP) stock solution. The Aβ(1-42) was dissolved in dimethylsulfoxide (DMSO) and then mixed with phosphate buffered saline, (PBS) (pH 7.4). The mixed Aβ(1-42) solution was filtered with a 0.2 μm Omnipore membrane syringe filter (Millipore, Bedford, Mass.). The compound to be tested in DMSO (50 times concentrate) was put into each well (0.5 μL/well) of a 96-well plate. The Aβ(1-42) solution was added into each well (24.5 μL/well). The plate was centrifuged at 1,000 g for 5 minutes and incubated at 37° C. for 1 day (Aβ 1-42; final concentration 100 μM).
After incubation Thioflavin T (ThT) (30 μM) solution in glycine-NaOH buffer (pH 8.5, 50 mM) was added into each well (250 μL/well), fluorescence was measured (ex. 440/20 nm; em 485/20 nm) using a fluorescence plate reader. The inhibitory activity was calculated as the reduction of fluorescence with the following formula:
inhibition (%)={(F(Aβ)−F(Aβ+compound)}/{F(Aβ)−F(solvent+compound)}×100
The IC50s were calculated by a curve fitting program using the following equation. The data were obtained from two different experiments in triplicate.
x=concentration of tested compound (M),

Data set [3] deals with T3, beta amyloid peptide Aβ(1-40) (Homo sapiens, UniProt P05067).
T3 construct: 0.5 mg/mL AP (140) peptide in 20% HFIP+0.1 μL/assay radioiodinated ^125I Aβ(1-40)
Put plainly: BAPA (Beta-Amyloid Peptide Aggregation), pH 6.0. The class given is biochemical. The settings on record: Aβ(1-40) 33 μM, pH 6.0, 2 to 4 hours at room temperature, filtration. The procedure:
BAPA (Beta-Amyloid Peptide Aggregation)
This assay is used to provide a measure of inhibition by a compound against the aggregation behavior of the beta amyloid peptide.
The purpose of this assay is to provide a higher volume method of assaying the amount of beta amyloid aggregation using an endpoint assay based on filtration. In this assay, hexafluoroisopropanol (HFIP) is used to break down the initial amyloid peptide to a monomer state and use a concentration of 33 μM which is high enough so that aggregation will occur at pH 6.0 in several hours.
β-Amyloid Peptide Aggregation, pH 6.0 (BAPA)
In a 96-well plate (Costar 3794), we add […] 50 mM Phosphate Buffer, pH 6.0, 10 μL 0.5 mg/mL AP (140) peptide in 20% HFIP+0.1 μL/assay radioiodinated ^125I Aβ(1-40) [^125I Aβ(1-40)], and 1 μL of the compound to be tested starting at 50 mM with a concentration of DMSO <1%. Then, we incubate for 2 to 4 hours at room temperature. We stop the reaction with […] of 50 mM phosphate buffer, pH 6.0, and filter it through a 0.2 μm 96-well filter plate (Millipore MAGU N22). We wash the filter plate with 100 μL of the same phosphate buffer. Aggregation was detected on a Microbeta counter after impregnating the filters with Meltilex (1450-441) and is corrected for background.

T2 sequence (P05067 672-713 limits assumed): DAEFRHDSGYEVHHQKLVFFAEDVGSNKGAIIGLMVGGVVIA
T1 sequence (P05067 672-711 limits assumed): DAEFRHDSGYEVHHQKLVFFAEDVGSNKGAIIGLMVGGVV
T3 sequence (P05067 672-711 limits assumed): as above

Take `CCCCCCN(C)c1ccc(/C=C2\SC(=S)N(CCS(=O)(=O)O)C2=O)cc1` (as salt: sodium) [Example 1, (Z) 2-{5[4-(Hexyl-methyl-amino)benzylidene] 4-oxo-2-thioxo-thiazolidin-3-yl}-ethanesulfonic acid]: the melting point was > 250 °C.
With `O=C(CN1C(=O)/C(=C/c2ccc(N3CC[C@@H]4CCCC[C@H]4C3)cc2)SC1=S)NS(=O)(=O)c1ccccc1` [Example 24, (Z) N-(2-{5-[(4aS,8aR)-4(Octahydro-isoquinolin-2-yl)benzylidene]-4-oxo-2-thioxo-thiazolidin-3-yl}-acetyl)-benzenesulfonamide], the melting point was 222 °C. Besides, the IC50 at Aβ(1-40) [1] was 6.5 µM and 10 µM and 6 µM. Also, the IC50 against Aβ(1-40) [2] is 1 µM and 0.8 µM. This compound gave an IC50 against Aβ(1-42) of 3.84 µM.
Regarding `CCCCCCN(C)c1ccc(/C=C2\SC(=S)N(CCS(=O)(=O)O)C2=O)cc1` [Example 1, (Z) 2-{5[4-(Hexyl-methyl-amino)benzylidene] 4-oxo-2-thioxo-thiazolidin-3-yl}-ethanesulfonic acid], the IC50 on Aβ(1-40) [1] is > 100 µM; at Aβ(1-40) [2], 1 µM; in data set [3] it was 23 µM; against Aβ(1-42) it was 1.72 µM.
Compound `CCCCN(CCCC)c1ccc(/C=C2\SC(=S)N(CCS(=O)(=O)NC(=O)c3ccc(F)cc3)C2=O)cc1` [Example 26, (Z) 2-[5-(4-Dibutylamino-benzytidene)-4-oxo-2-thioxo-thiazolidin-3-yl]-ethanesulfonic acid 4-fluoro-benzoylamide] yielded a melting point of 191 to 192 °C. The IC50 at Aβ(1-40) [1] was 6.1 µM and 10 µM. On Aβ(1-42), the half-maximal inhibitory concentration (IC50) was found to be 2.14 µM.
On to `CCCCN(CCCC)c1ccc(/C=C2\SC(=S)N(CC(=O)NS(=O)(=O)c3ccc(F)cc3)C2=O)cc1` [Example 25, (Z) N-{2-[5-(4-Dibutylamino-benzylidene)-4-oxo-2-thioxo-thiazolidin-3-yl]-acetyl}-4-fluoro-benzenesulfonamide], for which the melting point amounted to 125 °C. The IC50 on Aβ(1-40) [1] came out at 6 µM. On Aβ(1-40) [2], the 50% inhibitory concentration (IC50) was 0.6 µM and 0.5 µM. Also, the IC50 against Aβ(1-42) amounted to 2.38 µM.
Turning to `CCCCN(CCCC)c1ccc(/C=C2\SC(=S)N(Cc3nnn[nH]3)C2=O)cc1` [Example 20, (Z) 5-(4-Dibutylamino-benzylidene)-3(H-tetrazol-5-ylmethyl)-2-thioxo-thiazolidin-4-one], the IC50 is 2 µM on Aβ(1-40) [2], > 100 µM in data set [3] and 2.04 µM at Aβ(1-42).
Take `CCCCCCN(C)c1ccc(/C=C2\SC(=S)N(CS(=O)(=O)O)C2=O)cc1` [Example 15, (Z) {5-[4-(n-Hexylmethylamine)-benzylidene]-4-oxo-2-thioxo-thiazolidin-3-yl}-methanesulfonic acid]: the half-inhibitory concentration (IC50) at Aβ(1-40) [1] is > 100 µM; on Aβ(1-40) [2], > 100 µM; in data set [3], 8 µM; against Aβ(1-42), 3.39 µM.
On to `O=C1/C(=C/c2ccc(N3CCC4CCCCC4C3)cc2)SC(=S)N1Cc1cc(=O)c(O)co1` (stereo not shown) [Example 32, (Z) 3-(5-Hydroxy-4-oxo-4H-pyran-2-ylmethyl)-5-[4-(octahydro-isoquinolin-2-yl)benzylidene]-2-thioxo-thiazolidin-4-one], for which the IC50 on Aβ(1-40) [1] is > 100 µM; against Aβ(1-40) [2] it was 1 µM; in data set [3], 46 µM; on Aβ(1-42) it was 2.55 µM.
For `CCCCN(CCCC)c1ccc(/C=C2\SC(=S)N(CC(=O)NS(C)(=O)=O)C2=O)cc1` [Example 21, (Z) N-{2-[5-(4-Dibutylamino-benzylidene)-4-oxo-2-thioxo-thiazolidin-3-yl]-acetyl}-methanesulfonamide], the melting point is 219 to 222 °C. Besides, the half-maximal inhibitory concentration (IC50) at Aβ(1-40) [1] is > 100 µM. Further, the IC50 in data set [3] was > 100 µM. The compound also registered a concentration for half-maximal inhibition (IC50) at Aβ(1-42) of 2.91 µM.
On Aβ(1-42), “(Z) 2-[5-(4-Hexyl-methyl-amino-benzylidene)-4-oxo-2-thioxo-thiazolidin-3-yl]-ethanesulfonic acid 4-fluoro-benzoylamide [Example 40]” gave a concentration for half-maximal inhibition (IC50) of 2.84 µM.
For `CCCC1CCN(c2ccc(/C=C3\SC(=S)N(Cc4nnn[nH]4)C3=O)cc2)CC1` [Example 35], the IC50 at Aβ(1-40) [1] was 15 µM; against Aβ(1-40) [2], 0.4 µM; in data set [3] it was > 60 µM; against Aβ(1-42) it was 3.31 µM.
Consider `CCCCCCN(C)c1ccc(/C=C2\SC(=S)N(CCNC(C)=O)C2=O)cc1` [Example 14], for which the half-maximal inhibitory concentration (IC50) was > 100 µM at Aβ(1-40) [1], 0.22 µM at Aβ(1-40) [2], 30 µM in data set [3] and > 100 µM against Aβ(1-42).
